The values that follow come from patent US11028090B2 (Dong Wha Pharm. Co., Ltd., priority 2017, dated 2021).

Each structure is given as a SMILES string. Like-named read-outs stand apart in the source and are kept apart here.

Test [1] deals with acute myelogenous leukemia cells (MV-4-11 cells). Put plainly: Cytotoxicity to acute myelogenous leukemia cells (MV-4-11 cells), CCK-8. As to conditions: Homo sapiens, MV4-11, 72 h.
Test [2] has as its target BRD4 (BD1+BD2) bromodomain (Homo sapiens (Human), UniProt O60885). Description: BRD4 binding inhibition (AlphaScreen, GST-BRD4 vs tetraacetylated histone H4 peptide). The essentials:
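AlphaScreen read after 30 min dark incubation at room temperature with glutathione acceptor/streptavidin donor beads (10 μg/ml each). The beads were added to compound plus 100 nM biotin-H4 (K5,8,12,16-acetyl) peptide and 100 nM GST-BRD4 BD1+BD2 in pH 7.4 HEPES/Tween/BSA/DTT buffer.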

[3] abbreviates: read-out: MV-4-11 Cytotoxicity IC50.
The mark [4] stands for this setting: GST-BRD4 (BD1+BD2) / biotinylated acetyl-histone H4 (Lys5,8,12,16) peptide, read-out: IC50, BRD4 binding inhibition.
The mark [5] stands for this setting: GST-BRD4 (BD1+BD2) vs biotinylated acetyl-histone H4 peptide, AlphaScreen, read-out: BRD4 IC50.
The mark [6] stands for this setting: read-out: IC50, cytotoxicity against acute myelogenous leukemia cells.

With `CCOc1ccc2c(c1)nc(NCCCCNC(=O)OC(C)(C)C)c1nnc(C)n12` [Example 440, [4-(7-ethoxy-1-methyl-[1,2,4]triazolo[4,3-a]quinoxaline-4-ylamino)-butyl]-carbamic acid-tert-butylester], the half-maximal inhibitory concentration (IC50) in test [1] (setting [3]) is 580 nM; in test [2] (setting [4]) it was ≤ 10 nM; in test [2] (setting [5]), 9 nM.

For `CCOc1ccc2c(c1)nc(NCCCCNC(=O)CC(C)C)c1nnc(C)n12` [Example 442, N-[4-(7-ethoxy-1-methyl-[1,2,4]triazolo[4,3-a]quinoxaline-4-ylamino)-butyl]-3-methyl-butyramide], the IC50 was ≤ 200 nM in test [1] (setting [6]), 110 nM in test [1] (setting [3]), ≤ 50 nM in test [2] (setting [4]) and 16 nM in test [2] (setting [5]).

For `CCOc1ccc2c(c1)nc(NCCCCNC(=O)OC(C)C)c1nnc(C)n12` [Example 443, [4-(7-ethoxy-1-methyl-[1,2,4]triazolo[4,3-a]quinoxaline-4-ylamino)-butyl]-carbamic acid isopropylester], the IC50 in test [1] (setting [6]) was ≤ 200 nM; in test [1] (setting [3]), 120 nM; in test [2] (setting [4]), ≤ 50 nM; in test [2] (setting [5]), 13 nM.

As for `CCOc1ccc2c(c1)nc(NCCCCNC(=O)OCC(C)C)c1nnc(C)n12` [Example 444, [4-(7-ethoxy-1-methyl-[1,2,4]triazolo[4,3-a]quinoxaline-4-ylamino)-butyl]-carbamic acid isobutylester], the half-maximal inhibitory concentration (IC50) is ≤ 200 nM in test [1] (setting [6]), 120 nM in test [1] (setting [3]), ≤ 10 nM in test [2] (setting [4]) and 10 nM in test [2] (setting [5]).

For `CCOc1ccc2c(c1)nc(NCCCCNC(=O)OC1CCCC1)c1nnc(C)n12` [Example 445, [4-(7-ethoxy-1-methyl-[1,2,4]triazolo[4,3-a]quinoxaline-4-ylamino)-butyl]-carbamic acid cyclopentylester], the half-inhibitory concentration (IC50) in test [1] (setting [6]) was ≤ 200 nM; in test [1] (setting [3]), 100 nM; in test [2] (setting [4]), ≤ 50 nM; in test [2] (setting [5]), 13 nM.

For `CCOc1ccc2c(c1)nc(NCCCCNC(=O)Cc1cccs1)c1nnc(C)n12` [Example 446, N-[4-(7-ethoxy-1-methyl-[1,2,4]triazolo[4,3-a]quinoxaline-4-ylamino)-butyl]-2-thiophene-2-yl-acetamide], the concentration for half-maximal inhibition (IC50) was ≤ 200 nM in test [1] (setting [6]), 10 nM in test [1] (setting [3]), ≤ 50 nM in test [2] (setting [4]) and 12 nM in test [2] (setting [5]).

On to `Cc1nnc2c(NCCCCNC(=O)CC(C)C)nc3cc(OC(C)C)ccc3n12` [Example 449, N-[-(7-isopropoxy-1-methyl-[1,2,4]triazolo[4,3-a]quinoxaline-4-ylamino)-butyl]-3-methyl-butyramide], for which the IC50 in test [1] (setting [3]) is 300 nM; in test [2] (setting [4]) it was ≤ 50 nM; in test [2] (setting [5]), 27 nM.

Take `CCC(C)C(=O)NCCCCNc1nc2cc(OC(C)C)ccc2n2c(C)nnc12` (centres unmarked) [Example 450, N-[4-(7-isopropoxy-1-methyl-[1,2,4]triazolo[4,3-a]quinoxaline-4-ylamino)-butyl]-2-methyl-butyramide]: the values for the IC50 in test [1] (setting [3]), in test [2] (setting [4]) and in test [2] (setting [5]) were 270 nM, ≤ 50 nM and 19 nM, respectively.

Regarding `Cc1nnc2c(NCCCCNC(=O)Cc3cccs3)nc3cc(OC(C)C)ccc3n12` [Example 451, N-[4-(7-isopropoxy-1-methyl-[1,2,4]triazolo[4,3-a]quinoxaline-4-ylamino)-butyl]-2-thiophene-2-yl-acetamide], the half-inhibitory concentration (IC50) in test [1] (setting [6]) is ≤ 200 nM; in test [1] (setting [3]) it was 24 nM; in test [2] (setting [4]), ≤ 50 nM; in test [2] (setting [5]), 13 nM.

`Cc1nnc2c(NCCCCNC(=O)OC3CCCC3)nc3cc(OC(C)C)ccc3n12` [Example 453, [4-(7-isopropoxy-1-methyl-[1,2,4]triazolo[4,3-a]quinoxaline-4-ylamino)-butyl]-carbamic acid cyclopentyl ester]: the IC50 was 500 nM in test [1] (setting [3]), ≤ 50 nM in test [2] (setting [4]) and 24 nM in test [2] (setting [5]).

`Cc1nnc2c(NCCCCNC(=O)c3ccccc3Cl)nc3cc(OC(C)C)ccc3n12` [Example 454, 2-chloro-N-[4-(7-isopropoxy-1-methyl-[1,2,4]triazolo[4,3-a]quinoxaline-4-ylamino)-butyl]-benzamide]: the IC50 was ≤ 200 nM in test [1] (setting [6]), 80 nM in test [1] (setting [3]), ≤ 50 nM in test [2] (setting [4]) and 11 nM in test [2] (setting [5]).

Take `COc1cc(C)c2c(c1)nc(NCCCCNC(=O)CC(C)C)c1nnc(C)n12` [Example 458, [4-(7-methoxy-1,9-dimethyl-[1,2,4]triazolo[4,3-a]quinoxaline-4-ylamino)-butyl]-3-methyl-butyramide]: the IC50 in test [1] (setting [3]) was 530 nM; in test [2] (setting [4]), ≤ 10 nM.

As to `COc1ccc2c(nc(NCCCCNC(=O)CC(C)C)c3nnc(C)n32)c1Cl` [Example 461, [4-(6-chloro-7-methoxy-1-methyl-[1,2,4]triazolo[4,3-a]quinoxaline-4-ylamino)-butyl]-3-methyl-butyramide], the IC50 in test [1] (setting [3]) is 250 nM; in test [2] (setting [4]), ≤ 50 nM.

On to `COc1ccc2c(nc(NCCCCNC(=O)OCC(C)C)c3nnc(C)n32)c1Cl` [Example 462, [4-(6-chloro-7-methoxy-1-methyl-[1,2,4]triazolo[4,3-a]quinoxaline-4-ylamino)-butyl]-carbamic acid isobutylester], for which the IC50 is 600 nM in test [1] (setting [3]) and ≤ 50 nM in test [2] (setting [4]).

Take `COc1ccc2c(nc(NCCCCNC(=O)Cc3cccs3)c3nnc(C)n32)c1Cl` [Example 463, N-[4-(6-chloro-7-methoxy-1-methyl-[1,2,4]triazolo[4,3-a]quinoxaline-4-ylamino)-butyl]-2-thiophene-2-yl-acetamide]: the IC50 in test [1] (setting [6]) is ≤ 200 nM; in test [1] (setting [3]) it was 100 nM; in test [2] (setting [4]), ≤ 50 nM.

Turning to `COc1cc2nc(NCCCCN)c3nnc(C)n3c2cc1C` [Example 465, N^1-(7-methoxy-1,8-dimethyl-[1,2,4]triazolo[4,3-a]quinoxaline-4-yl)-butane-1,4-diamine ditrifluoroacetic acid], the half-inhibitory concentration (IC50) in test [1] (setting [3]) is 690 nM; in test [2] (setting [5]), 72 nM.

Regarding `COc1cc2nc(NCCCCNC(=O)c3ccccc3Cl)c3nnc(C)n3c2cc1C` [Example 470], the 50% inhibitory concentration (IC50) was 220 nM in test [1] (setting [3]) and 63 nM in test [2] (setting [5]).

`COc1cc2nc(NCCCCNC(=O)CC(C)C)c3nnc(C)n3c2cc1C(F)(F)F` [Example 476, N-[4-(7-methoxy-1-methyl-8-trifluoromethyl-[1,2,4]triazolo[4,3-a]quinoxaline-4-ylamino)-butyl]-3-methyl-butyramide]: the IC50 in test [1] (setting [3]) was 480 nM; in test [2] (setting [4]), ≤ 50 nM; in test [2] (setting [5]) it was 34 nM.

With `COc1cc2nc(NCCCCNC(=O)[C@@H](O)C(C)C)c3nnc(C)n3c2cc1C(F)(F)F` [Example 479, 2-(S)-hydroxy-N-[4-(7-methoxy-1-methyl-8-trifluoromethyl-[1,2,4]triazolo[4,3-a]quinoxaline-4-ylamino)-butyl]-3-methyl-butyramide], the results for the concentration for half-maximal inhibition (IC50) in test [1] (setting [3]), in test [2] (setting [4]) and in test [2] (setting [5]) were 240 nM, ≤ 10 nM and 5 nM, respectively.

On to `COc1cc2nc(NCCCCNC(=O)Cc3cccs3)c3nnc(C)n3c2cc1C(F)(F)F` [Example 480, N-[4-(7-methoxy-1-methyl-8-trifluoromethyl-[1,2,4]triazolo[4,3-a]quinoxaline-4-ylamino)-butyl]-2-thiophene-2-yl-acetamide], for which the 50% inhibitory concentration (IC50) in test [1] (setting [6]) was ≤ 200 nM; in test [1] (setting [3]), 80 nM; in test [2] (setting [4]) it was ≤ 10 nM; in test [2] (setting [5]), 9 nM.

For the molecule `Cc1nnc2c(NCCCCNC(=O)OC(C)(C)C)nc3cc(-n4ccnc4)ccc3n12` [Example 490, [4-(7-imidazole-1-yl-1-methyl-[1,2,4]triazolo[4,3-a]quinoxaline-4-ylamino)-butyl]-carbamic acid-tert-butylester], the half-maximal inhibitory concentration (IC50) in test [1] (setting [6]) was ≤ 200 nM; in test [1] (setting [3]), 190 nM; in test [2] (setting [4]), ≤ 10 nM; in test [2] (setting [5]), 9 nM.

Regarding `Cc1nnc2c(NCCCCNC(=O)CC(C)C)nc3cc(-n4ccnc4)ccc3n12` [Example 492, N-[4-(7-imidazole-1-yl-1-methyl-[1,2,4]triazolo[4,3-a]quinoxaline-4-ylamino)-butyl]-3-methyl-butyramide], the IC50 was ≤ 200 nM in test [1] (setting [6]), 80 nM in test [1] (setting [3]), ≤ 50 nM in test [2] (setting [4]) and 13 nM in test [2] (setting [5]).

As for `Cc1nnc2c(NCCCCNC(=O)OCC(C)C)nc3cc(-n4ccnc4)ccc3n12` [Example 493], the half-maximal inhibitory concentration (IC50) in test [1] (setting [6]) was ≤ 200 nM; in test [1] (setting [3]) it was 48 nM; in test [2] (setting [4]) it was ≤ 10 nM; in test [2] (setting [5]), 5 nM.

For `Cc1nnc2c(NCCCCNC(=O)OC(C)C)nc3cc(-n4ccnc4)ccc3n12` [Example 494, [4-(7-imidazole-1-yl-1-methyl-[1,2,4]triazolo[4,3-a]quinoxaline-4-ylamino)-butyl]-carbamic acid isopropylester], the IC50 is ≤ 200 nM in test [1] (setting [6]), 110 nM in test [1] (setting [3]), ≤ 50 nM in test [2] (setting [4]) and 14 nM in test [2] (setting [5]).

`CCC(C)CC(=O)NCCCCNc1nc2cc(-n3ccnc3)ccc2n2c(C)nnc12` (centres unmarked) [Example 495, 3-methyl-pentanoic acid-[4-(7-imidazole-1-yl-1-methyl-[1,2,4]triazolo[4,3-a]quinoxaline-4-ylamino)-butyl]-amide]: the IC50 in test [1] (setting [6]) is ≤ 200 nM; in test [1] (setting [3]), 29 nM; in test [2] (setting [4]), ≤ 50 nM; in test [2] (setting [5]), 12 nM.
